{"source": "patent US20060257543A1", "about": "“Molecules comprising linked organic moieties as flavor modifiers for comestible compositions” (priority 2005, published 2006)", "key": {"[1]": {"target": "T1, hT1R2/hT1R3 sweet receptor expressed in an HEK293 cell line (Homo sapiens, UniProt Q7RTX0+Q8TE23)", "T1 construct": "expressed in transfected cells; host or cells: HEK293 derivative, clone S-9", "T1 sequence (Q8TE23 20-839)": "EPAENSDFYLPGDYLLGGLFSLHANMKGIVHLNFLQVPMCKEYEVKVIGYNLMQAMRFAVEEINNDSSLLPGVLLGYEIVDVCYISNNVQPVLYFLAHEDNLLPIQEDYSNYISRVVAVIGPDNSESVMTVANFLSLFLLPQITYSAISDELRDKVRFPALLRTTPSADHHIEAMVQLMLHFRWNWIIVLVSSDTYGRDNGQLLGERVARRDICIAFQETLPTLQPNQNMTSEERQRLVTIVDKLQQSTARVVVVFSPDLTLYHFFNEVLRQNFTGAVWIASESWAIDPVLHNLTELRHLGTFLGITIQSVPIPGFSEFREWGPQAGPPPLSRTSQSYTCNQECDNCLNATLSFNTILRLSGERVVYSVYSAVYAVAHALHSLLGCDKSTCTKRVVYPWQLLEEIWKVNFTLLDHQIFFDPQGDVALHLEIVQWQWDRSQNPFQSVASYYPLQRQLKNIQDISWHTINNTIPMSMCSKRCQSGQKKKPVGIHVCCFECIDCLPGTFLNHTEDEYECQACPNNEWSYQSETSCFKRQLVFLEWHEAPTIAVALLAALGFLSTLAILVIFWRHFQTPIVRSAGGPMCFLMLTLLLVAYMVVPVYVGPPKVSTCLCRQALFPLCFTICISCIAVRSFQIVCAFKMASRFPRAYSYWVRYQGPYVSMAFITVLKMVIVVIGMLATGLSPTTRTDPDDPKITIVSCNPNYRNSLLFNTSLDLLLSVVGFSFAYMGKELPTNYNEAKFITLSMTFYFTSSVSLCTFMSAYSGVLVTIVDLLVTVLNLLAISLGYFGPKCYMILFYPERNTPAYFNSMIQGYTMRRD", "T1 sequence (Q7RTX0 21-852)": "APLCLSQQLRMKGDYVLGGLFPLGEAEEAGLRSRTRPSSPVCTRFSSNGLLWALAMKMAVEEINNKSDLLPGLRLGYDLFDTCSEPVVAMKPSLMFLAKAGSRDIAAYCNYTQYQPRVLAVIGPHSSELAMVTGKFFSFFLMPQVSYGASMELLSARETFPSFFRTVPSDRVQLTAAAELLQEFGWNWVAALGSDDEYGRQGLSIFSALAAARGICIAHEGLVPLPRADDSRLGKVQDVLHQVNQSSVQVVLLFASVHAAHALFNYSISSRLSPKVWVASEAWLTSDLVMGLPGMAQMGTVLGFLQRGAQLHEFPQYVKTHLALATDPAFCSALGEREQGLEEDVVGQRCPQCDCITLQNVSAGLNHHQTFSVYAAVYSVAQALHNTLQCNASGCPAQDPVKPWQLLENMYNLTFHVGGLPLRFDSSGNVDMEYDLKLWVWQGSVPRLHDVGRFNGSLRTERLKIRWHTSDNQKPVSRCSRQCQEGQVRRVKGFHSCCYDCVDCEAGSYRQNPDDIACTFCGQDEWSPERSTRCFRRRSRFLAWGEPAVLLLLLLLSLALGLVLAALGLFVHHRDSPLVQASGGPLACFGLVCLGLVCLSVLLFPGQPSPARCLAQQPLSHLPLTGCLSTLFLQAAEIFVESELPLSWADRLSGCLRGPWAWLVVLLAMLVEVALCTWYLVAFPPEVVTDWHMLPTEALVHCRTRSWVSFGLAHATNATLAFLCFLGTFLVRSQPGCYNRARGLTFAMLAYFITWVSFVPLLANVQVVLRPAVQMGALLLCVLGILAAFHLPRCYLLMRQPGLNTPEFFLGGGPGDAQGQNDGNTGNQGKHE", "test": "In vitro hT1R2/hT1R3 sweet taste receptor activation assay (FLIPR, dose response)", "type": "cell-based", "conditions": "read-out: EC50 for activation of a hT1R2/hT1R3 sweet receptor", "from_the_text": "An HEK293 cell line derivative (see Chandrashekar, J., Mueller, K. L., Hoon, M. A., Adler, E., Feng, L., Guo, W., Zuker, C. S., Ryba, N. J.,. Cel,l 2000, 100, 703-711.) that stably expresses Gα15 and hT1R2/hT1R3 (see Li, X., Staszewski, L., Xu, H., Durick, K., Zoller, M., Adler, E. Proc Natl Acad Sci USA 2002, 99, 4692-4696, and PCT Publication No. WO 03/001876) was used to identify compounds with sweet taste enhancing properties. These references are hereby incorporated herein by reference for their methods of preparing and maintaing the cell lines discussed below, and for their methods for screeing compounds that inhibit the biological receptors.\nCompounds covered in this document were initially selected based on their activity on the hT1R2/hT1R3—HEK293-Gα15 cell line (Li, et al. vide supra). Activity was determined using an automated fluorometric imaging assay on a FLIPR instrument (Fluorometric Intensity Plate Reader, Molecular Devices, Sunnyvale, Calif.) (designated FLIPR assay). Cells from one clone (designated S-9 cells) were seeded into 384-well plates (at approximately 50,000 cells per well) in a medium containing DMEM Low Glucose (Invitrogen, Carlsbad, Calif.), 10% dialyzed fetal bovine serum (Invitrogen, Carlsbad, Calif.), 100 Units/ml Penicillin G, and 100 μg/ml Streptomycin (Invitrogen, Carlsbad, Calif.) (Li, et al. vide supra) see also World Patent No. WO 03/001876 A2). S-9 cells were grown for 24 hours at 37° C. S-9 cells were then loaded with the calcium dye Fluo-3AM (Molecular Probes, Eugene, Oreg.), 4 μM in a phosphate buffered saline (D-PBS) (Invitrogen, Carlsbad, Calif.), for 1 hour at room temperature. After replacement with 25 μl D-PBS, stimulation was performed in the FLIPR instrument and at room temperature by the addition of 25 μl D-PBS supplemented with different stimuli at concentrations corresponding to twice the desired final level. Receptor activity was quantified by determining the maximal fluorescence increases (using a 480 nm excitation and 535 nm emission) after normalization to basal fluorescence intensity measured before stimulation.\nFor dose-responses analysis, stimuli were presented in duplicates at 10 different concentrations ranging from 60 nM to 30 μM. Activities were normalized to the response obtained with 400 mM D-fructose, a concentration that elicits maximum receptor response. EC50s were determined using a non-linear regression algorithm (using a Senomyx, Inc. software), where the Hill slope, bottom asymptotes and top asymptotes were allow to vary. Identical results were obtained when analyzing the dose-response data using commercially available software for non-linear regression analysis such as GraphPad PRISM (San Diego, Calif.)."}}, "data": [{"smiles": "CC(C)Oc1ccc(NC(=S)NCc2ccsc2)cc1", "note": "[Example 3, 1-(4-Isopropoxyphenyl)-3-(thiophen-3-ylmethyl)thiourea]", "values": [{"measurement": "EC50", "setting": "[1]", "value": 150, "unit": "nM"}, {"measurement": "melting point", "value": "80.5 to 81.5", "unit": "°C"}]}, {"smiles": "CC(C)Oc1ccc(NC(=S)NCc2ccoc2)cc1", "note": "[Example 4, 1-(furan-3-ylmethyl)-3-(4-isopropoxyphenyl)thiourea]", "values": [{"measurement": "EC50", "setting": "[1]", "value": 230, "unit": "nM"}, {"measurement": "melting point", "value": "89 to 90", "unit": "°C"}]}, {"smiles": "COc1ccc(CNc2ccccc2C)cc1O", "note": "[Example 12, 5-((o-toluidino)methyl)-2-methoxyphenol]", "values": [{"measurement": "EC50", "setting": "[1]", "value": 2980, "unit": "nM"}, {"measurement": "melting point", "value": "104 to 105", "unit": "°C"}]}]}
